The values that follow come from US8058243B2, “Method for treating a brain cancer with ifenprodil” (HSC Research and Development Limited Partnership, priority 2006, dated 2011).

The structures appear in SMILES notation. Where a name gives a salt, the structure may show the parent alone. Read-outs that look alike come from different tables or passages of the source.

For the test, the system named is murine neural precursor cells (neurosphere cultures). The test can be described thus: HTS of LOPAC library against secondary neurosphere cultures, MTT proliferation assay at 3 μM, day 7 (z score, P value). It counts as cell-based, mouse. On the technique in general: Formazan colour is commonly taken as a measure of viable cells.
The mark [1] stands for this setting: primary LOPAC screen, 3 μM, MTT, neurosphere proliferation.
Where [2] appears, read: yes/no: significantly inhibited neurosphere proliferation in the primary screen.
The mark [3] stands for this setting: LOPAC primary screen, neurosphere MTT proliferation, 3 μM, day 7.
The mark [4] stands for this setting: yes/no: significantly inhibited neurosphere proliferation (P<0.01) in the primary screen.
Where [5] appears, read: LOPAC screen, neurosphere MTT proliferation, 3 μM, day 7.
The mark [6] stands for this setting: yes/no: significantly inhibited neurosphere proliferation (P<0.01) in primary screen.
Setting [7] is: LOPAC library screen, 3 μM, MTT, secondary neurosphere cultures, day 7.
Setting [8] is: yes = significantly inhibited neurosphere proliferation (P<0.01) in the primary screen.
Where [9] appears, read: LOPAC library screen, 3 μM, MTT, neurosphere cultures.
[10] abbreviates: LOPAC library screen at 3 μM, MTT, secondary neurosphere cultures, screened in singlets.

As for `CC(C)(CO)Cc1cc(C(C)(C)C)c(O)c(C(C)(C)C)c1` [CGP-7930], the “Z Score” value is listed as −0.411. The compound further gave a Z score under setting [1] of −0.411. Moreover, under setting [2], the Activity entry is recorded as “no”.

As for `CC(C)(C=O)Cc1cc(C(C)(C)C)c(O)c(C(C)(C)C)c1` [CGP-13501], the “Z Score” value is −1.096. The same compound returned a Z score under setting [1] of −1.096. Under setting [2], the Activity entry is recorded as “no”.

Consider `CCn1cnc2c(Nc3cccc(Cl)c3)nc(N[C@@H]3CCCC[C@@H]3N)nc21.Cl` [CGP-74514A hydrochloride], for which the “Z Score” value is −9.117. For the same compound, under setting [3], the Z score is −9.117. The Activity entry under setting [4] is “yes”.

For `Nc1nc2ccc(Cl)cc2c2nc(-c3ccco3)nn12` [CGS-15943], the “Z Score” value came out at 0.1783 and the Z score came out at 0.178.

As for `CCNC(=O)[C@H]1O[C@@H](n2cnc3c(N)nc(NCCc4ccc(CCC(=O)O)cc4)nc32)[C@H](O)[C@@H]1O` [CGS-21680 hydrochloride], for the setting “168 h, 3 µM”, the “Z Score” value is listed as −1.225 and the Z score was −1.225. For the same compound, the Activity result under setting [4] is reported as “no”.

Take `C[C@H](Cc1ccc2c(c1)OC(C(=O)[O-])(C(=O)[O-])O2)NC[C@H](O)c1cccc(Cl)c1.[Na+].[Na+]` [CL 316,243]: the Z score under setting [5] turned out to be 0.621. Further, the Activity entry under setting [6] is “no”.

For the compound `C[C@H](Cc1ccc2c(c1)OC(C(=O)[O-])(C(=O)[O-])O2)NC[C@H](O)c1cccc(Cl)c1.[Na+].[Na+]` [CL 316, 243], the “Z Score” value was 0.6212.

Take `N#Cc1cc2nc([O-])c([O-])nc2cc1[N+](=O)[O-].[Na+].[Na+]` [CNQX disodium]: under setting [7], the “Z Score” value is given as −1.904. Also, the Z score under setting [5] is on record as −1.904. For the same compound, the Activity entry under setting [6] is reported as “no”.

Consider `CCc1cccc(N(C)C(N)=Nc2cccc3ccccc23)c1` [CNS-1102], for which the Activity result was “yes”. Further, the “Z Score” value under setting [7] was −3.782. Under setting [3], the Z score is −3.782.

In the case of `CCCCCCC(C)(C)c1ccc([C@@H]2C[C@H](O)CC[C@H]2CCCO)c(O)c1` [CP55940], the “Z Score” value was 1.396. In addition, under setting [1], the Z score came to 1.396. Further, under setting [2], the Activity entry is “no”.

For `CC1(C)CCC(NC(=O)[C@@H](N)CCC(=O)O)CC1` [CR 2249], under “168 h, 3 µM”, the “Z Score” value is −1.002 and the Z score is −1.002. Under setting [8], the Activity result was “no”.

Take `Cc1cc(C)c(NC(=O)C[C@H](CC(=O)O)c2cccc3ccccc23)c(C(=O)N2CCC3(CCCC3)CC2)c1` [CR 2945]: for the setting “168 h, 3 µM”, the “Z Score” value worked out at 0.5451 and the Z score was determined as 0.545. In addition, under setting [6], the Activity entry is recorded as “no”.

As for `CCCCCCCCCCCCCCCCCCNC(=O)OCC(COP(=O)([O-])OCC[n+]1ccsc1)OC` (stereo not shown) [CV-3988], the “Z Score” value is −0.4371. Further, the Z score under setting [3] is reported as −0.437. In addition, the Activity entry (yes/no: significantly inhibited neurosphere proliferation in primary screen) is reported as “no”.

In the case of `O=C(c1ccc2c(c1)OCCO2)N1CCCCC1` [CX 546], the “Z Score” value is given as −1.05. Further, the Z score under setting [5] was −1.050. In addition, the Activity entry under setting [6] is reported as “no”.

In the case of `O=C(O)/C=C/c1ccc(O)c(O)c1` [Caffeic Acid], the “Z Score” value under setting [9] is 0.3199. Besides, the Z score under setting [5] turned out to be 0.320. Further, the Activity entry under setting [6] is recorded as “no”.

With `O=C(/C=C/c1ccc(O)c(O)c1)OCCc1ccccc1` [Caffeic acid phenethyl ester], under “168 h, 3 µM”, the “Z Score” value amounted to 1.306 and the Z score is listed as 1.306. In addition, the Activity entry under setting [6] was “no”.

On to `Cn1c(=O)c2c(ncn2C)n(C)c1=O` [Caffeine], for which the “Z Score” value under setting [9] turned out to be 0.4113. The compound further came in with a Z score under setting [5] of 0.411.

On to `CNc1ccc2oc(C[C@H]3O[C@@]4(CC[C@H]3C)O[C@H]([C@H](C)C(=O)c3ccc[nH]3)[C@H](C)C[C@H]4C)nc2c1C(=O)O` [Calcimycin], for which the “Z Score” value is reported as 2.172. This compound also yielded a Z score under setting [5] of 2.172. In addition, the Activity result under setting [6] is recorded as “no”.

For the compound `Clc1ccc(C(c2ccc(Cl)cc2)n2cc[n+](CC(OCc3ccc(Cl)cc3Cl)c3ccc(Cl)cc3Cl)c2)cc1` (stereo not shown) [Calmidazolium chloride], for the setting “168 h, 3 µM”, the “Z Score” value is recorded as −8.582 and the Z score was −8.582. The Activity entry under setting [8] is listed as “yes”.

`CC1(C(=O)O)C2CCC(O2)C1(C)C(=O)O` (stereo not shown) [Cantharidic Acid]: the “Z Score” value is reported as −0.5529. This compound also gave a Z score under setting [5] of −0.553. The Activity entry under setting [6] is listed as “no”.

As for `C[C@@]12C(=O)OC(=O)[C@]1(C)[C@H]1CC[C@@H]2O1` [Cantharidin], the “Z Score” value is given as −0.5781. The compound also had a Z score under setting [5] of −0.578. The Activity entry under setting [6] was “no”.

On to `Oc1cc2c(cc1O)CN(C(=S)NCCc1ccc(Cl)cc1)CCC2` [Capsazepine], for which the “Z Score” value under setting [9] was 1.26. The compound also showed a Z score under setting [5] of 1.260. In addition, the Activity entry under setting [6] is “no”.

Consider `C[C@H](CS)C(=O)N1CCC[C@H]1C(=O)O` [Captopril], for which the “Z Score” value under setting [7] is −1.285. For the same compound, under setting [5], the Z score was −1.285. Moreover, the Activity result under setting [6] was “no”.

As for `C[N+](C)(C)CCOC(N)=O` [Carbachol], the “Z Score” value under setting [9] is listed as −0.03381. The Z score under setting [5] is on record as −0.034. Further, the Activity result under setting [6] is recorded as “no”.

On to `NC(=O)N1c2ccccc2C=Cc2ccccc21` [Carbamazepine], for which the “Z Score” value under setting [9] was 1.114. The compound further gave a Z score under setting [5] of 1.114. The Activity result under setting [6] is “no”.

Consider `NCCC(=O)NCCc1c[nH]cn1` [Carcinine dihydrochloride], for which, for the setting “168 h, 3 µM”, the “Z Score” value is on record as −1.023 and the Z score was −1.023. Further, under setting [2], the Activity result was “no”.

For `CCCC(C)(COC(N)=O)COC(=O)NC(C)C` (stereo not shown) [Carisoprodol], the “Z Score” value was −1.795. Besides, the Z score under setting [5] is recorded as −1.795. In addition, under setting [6], the Activity result was “no”.

In the case of `O=NN(CCCl)C(=O)NCCCl` [Carmustine], the “Z Score” value under setting [10] is recorded as 2.191. The Z score under setting [5] came to 2.191. Besides, the Activity entry under setting [6] was “no”.

Take `N[C@@H](C(=O)N[C@@H]1C(=O)N2C(C(=O)O)=C(Cl)CS[C@H]12)c1ccccc1` [Cefaclor]: under setting [7], the “Z Score” value is −3.009. The compound further came in with a Z score under setting [3] of −3.009. In addition, the Activity entry under setting [4] is “yes”.

Take `Cc1nnc(SCC2=C(C(=O)O)N3C(=O)[C@@H](NC(=O)Cn4cnnn4)[C@H]3SC2)s1` [Cefazolin sodium]: the “Z Score” value under setting [7] is listed as −2.58. The Z score under setting [3] is on record as −2.580. Moreover, the Activity result under setting [4] is “yes”.

With `CO[C@@]1(NC(=O)CSCC#N)C(=O)N2C(C(=O)O)=C(CSc3nnnn3C)CS[C@@H]21` [Cefmetazole sodium], the “Z Score” value under setting [10] worked out at 2.503. The same compound displayed a Z score under setting [5] of 2.503. Also, the Activity entry under setting [6] is on record as “no”.

Turning to `CO/N=C(\C(=O)N[C@@H]1C(=O)N2C(C(=O)O)=C(COC(C)=O)CS[C@H]12)c1csc(N)n1` [Cefotaxime sodium], the “Z Score” value (LOPAC library screen at 3 μM, secondary neurosphere cultures, MTT) is −1.096. This compound also gave a Z score under setting [3] of −1.096. Further, the Activity result under setting [4] is recorded as “no”.

For `NC(=O)c1cc[n+](CC2=C(C(=O)O)N3C(=O)[C@@H](NC(=O)[C@@H](c4ccccc4)S(=O)(=O)[O-])[C@H]3SC2)cc1` [Cefsulodin sodium salt hydrate], under setting [7], the “Z Score” value is listed as −2.277. The compound further registered a Z score under setting [3] of −2.277. Besides, the Activity result under setting [4] is recorded as “no”.

In the case of `CO/N=C(\C(=O)N[C@@H]1C(=O)N2C(C(=O)O)=C(CSc3nc(=O)c(=O)[nH]n3C)CS[C@H]12)c1csc(N)n1` [Ceftriaxone sodium], the Activity result is “no”. Also, the “Z Score” value under setting [10] turned out to be 2.23. The Z score under setting [3] is recorded as 2.230.

On to `CN(C)CCOC(=O)COc1ccc(Cl)cc1` [Centrophenoxine hydrochloride], for which the “Z Score” value is given as −0.3302. This compound also returned a Z score under setting [5] of −0.330. Under setting [6], the Activity result is reported as “no”.

With `CC1=C(C(=O)O)N2C(=O)[C@@H](NC(=O)[C@H](N)c3ccccc3)[C@H]2SC1` [Cephalexin hydrate], the “Z Score” value under setting [7] is −3.966. Moreover, the Z score under setting [3] is −3.966. The Activity entry under setting [4] is “yes”.

For `CC(=O)OCC1=C(C(=O)[O-])N2C(=O)[C@@H](NC(=O)CCC[C@@H](N)C(=O)[O-])[C@H]2SC1.[Zn+2]` [Cephalosporin C zinc salt], the “Z Score” value is given as −3.309. This compound displayed a Z score under setting [3] of −3.309. For the same compound, the Activity entry under setting [4] is reported as “yes”.

On to `CC(=O)OCC1=C(C(=O)O)N2C(=O)[C@@H](NC(=O)Cc3cccs3)[C@H]2SC1` [Cephalothin sodium], for which the “Z Score” value under setting [10] was found to be 2.264. Under setting [3], this compound came in with a Z score of 2.264. Besides, under setting [4], the Activity entry is “no”.

As for `CC(=O)OCC1=C(C(=O)O)N2C(=O)[C@@H](NC(=O)CSc3ccncc3)[C@H]2SC1` [Cephapirin sodium], the “Z Score” value under setting [9] is on record as 0.6219. For the same compound, the Z score under setting [3] amounted to 0.622. Moreover, the Activity result under setting [4] is recorded as “no”.

Turning to `CC1=C(C(=O)O)N2C(=O)[C@@H](NC(=O)[C@H](N)C3=CCC=CC3)[C@H]2SC1` [Cephradine], under setting [9], the “Z Score” value came to 0.7112. For the same compound, the Z score under setting [3] came out at 0.711. The Activity entry under setting [4] was “no”.

For the compound `COc1ccc2c(c[n+](C)c3c4cc5c(cc4ccc23)OCO5)c1OC` [Chelerythrine (36), Chelerythrine, reference compound], the “Z Score” value under setting [7] was −10.67. Under setting [3], this compound yielded a Z score of −10.671. The Activity result under setting [4] is recorded as “yes”.

For `O=C(O)c1cc(O)cc(C(=O)O)n1` [Chelidamic acid], under “168 h, 3 µM”, the “Z Score” value was found to be 0.7261 and the Z score came out at 0.726. Besides, the Activity entry under setting [6] is on record as “no”.

Consider `O=C(O)CCCc1ccc(N(CCCl)CCCl)cc1` [Chlorambucil], for which the “Z Score” value came to 0.08078. The same compound yielded a Z score under setting [3] of 0.081. The Activity result under setting [4] is reported as “no”.
